Measured values from patent publication US5470832A, “Inhibitors of geranylgeranyl-protein transferase” (Merck & Co., Inc., priority 1994, dated 1995).

Legend:
Assay type in all cases: biochemical
FPTase = target: T1, FPTase (Homo sapiens, UniProt P49354+P49356); assay: In vitro inhibition of recombinant farnesyl-protein transferase (transferase assay); conditions: 650 nM Ras-CVLS, 100 nM farnesyl diphosphate, 30 °C
T1 construct: made in house
Text: Molecular biological manipulations. To construct the C-terminus CAAX box routants, pUC-[L68]RAS1(term.) was digested with the restriction enzymes HincII and NarI to create a vector into which oligonucleotides containing new C-terminal sequences could be ligated. Except where indicated, the amino acids preceding the CAAX sequence are SLK. To simplify the nomenclature, [L68]RAS1 (term.)SLKCVLS (J.B. Gibbs et al., Proc. Natl. Acad Sci. U.S.A., 86:6630 (1989)) will be referred to as Ras-CVLS, and this convention is used for all other mutants. The substrate for Frase was Ras-CVLS. The substrate for GGPTase-I was Ras-CAIL.
Transferase Assays. Isoprenyl-protein transferase activity assays were carried out at 30 ° C. unless noted otherwise. A typical reaction contained (in a final volume of 50 μL): [^3 H]farnesyl diphosphate or [^3 H]geranylgeranyl diphosphate, Ras protein, 50 mM HEPES, pH 7.5, 5 mM MgCl2, 5 mM dithiothreitol and isoprenyl-protein transferase. The FPTase employed in the assay was prepared by recombinant expression as described in Omer, C. A., Kral, A. M., Diehl, R. E., Prendergast, G. C., Powers, S., Allen, C. M., Gibbs, J. B. and Kohl, N. E. (1993) Biochemistry 32:5167-5176. After thermally pre-equilibrating the assay mixture in the absence of enzyme, reactions were initiated by the addition of isoprenyl-protein transferase and stopped at timed intervals (typically 15 min) by the addition of 1M HCl in ethanol (1 mL). The quenched reactions were allowed to stand for 15 m (to complete the precipitation process). After adding 2 mL of 100% ethanol, the reactions were vacuum-filtered through Whatman GF/C filters. Filters were washed four times with 2 mL aliquots of 100% ethanol, mixed with scintillation fluid (10 mL) and then counted in a Beckman LS3801 scintillation counter.
(§1) For inhibition studies, assays were run as described above, except inhibitors were prepared as concentrated solutions in 100% dimethyl sulfoxide and then diluted 20-fold into the enzyme assay mixture. IC50 values were determined with both transferase substrates near KM concentrations. […]

bGGPTase-I = target: T2, bGGPTase-I (Bos taurus, UniProt P29702+Q5EAD5); assay: In vitro inhibition of geranylgeranyl protein transferase type I purified from bovine brain (transferase assay); conditions: 500 nM Ras-CAIL, 100 nM geranylgeranyl diphosphate, 30 °C
T2 construct: Cerebral lobes from bovine brains were homogenized in lysis buffer; from tissue; host or cells: bovine brain (cerebral lobes)
Experimental: Purification of isoprenyl-protein transferases. All purification steps were performed at 4 ° C. Cerebral lobes from bovine brains were homogenized in lysis buffer containing 50 mM Tris-Cl, pH 8.0, 1 mM EGTA, 1 mM MgCl2, 5 mM dithiothreitol, 10 μg/mL aprotinin, 0.5 mM phenylmethyl sulfonyl fluoride (PMSF), 2 μg/mL antipain and 2 μg/mL leupeptin (M.D. Schaber et al. J. Biol. Chem., 265:14701 (1990)). Cellular debris and membranes were removed by centrifugation (10 000 g for 20 rain followed by 100 000 g for 30 minutes). The supematant was loaded directly onto a column (30 cm × 20 cm^2) of DEAE-Sephacel that had been equilibrated with lysis buffer. The column was washed with the same buffer and proteins were eluted with a linear gradient of NaCl (0-500 mM, 1 L+L) in the same buffer. Fractions (20 mL) were collected and those containing different transferase activities were pooled separately. This procedure resolved FTase and GGPTase-II from GGPTase-I. Each pool was then applied to an ω-Aminooctyl agarose colurctn (30 cm×4.9 cm^2) and eluted with a linear gradient of NaCl (0-500 mM, 500 mL+500 mL) in lysis buffer. Fractions containing both FTase and GGPTase-II were pooled. The GGPTase-I (termed "bGGPTase-I") so obtained was utilized in the assay described below.
Molecular biological manipulations. To construct the C-terminus CAAX box routants, pUC-[L68]RAS1(term.) was digested with the restriction enzymes HincII and NarI to create a vector into which oligonucleotides containing new C-terminal sequences could be ligated. Except where indicated, the amino acids preceding the CAAX sequence are SLK. […]
Transferase Assays. […] Filters were washed four times with 2 mL aliquots of 100% ethanol, mixed with scintillation fluid (10 mL) and then counted in a Beckman LS3801 scintillation counter.
as §1

hGGPTase-I = target: T3, hGGPTase-I (Homo sapiens, UniProt P49354+P53609); assay: In vitro inhibition of recombinant human geranylgeranyl protein transferase type I (transferase assay); conditions: 500 nM Ras-CAIL, 100 nM geranylgeranyl diphosphate, 30 °C
T3 construct: made in house; host or cells: E. coli BL21(DE3), strain RD578
Text: Cloning of human GGPTase-I βGGI subunit cDNAs. Approximately 1 nmol of GGPTase-I-I purified from bovine brain as described in Moomaw, J.F. and ,Casey, P.J. (1992) J Biol Chem 267:17438-17443, was subjected to electrophoresis on a 11% SDS-polyacrylamide gel and transferred to nitrocellulose paper. The nitrocellulose paper was then stained with Poneeau S to localize the subunit polypeptides. The 48 kDa and 43 kDa bands were excised from the nitroeellulose and sent to Harvard Microchem (Cambridge, Mass.) for processing. High-confidence sequences of five βGGI subunit peptides were obtained. The sequences of these peptides are listed below:
Two degenerate oligonucleotide primers [GCTC-GGATCC-C-(A/G)AA-(A/G)TT-NGT-(A/G)TA-(T/C)TG-(A/G)A (SEQ.ID.NO.:6) and GTCGG-GAATTC-ACN-AT(A/C/T)-GCN-TT(C/T)-TT(C/T)-GC (SEQ.ID.NO.:7)] were synthesized based on portions of two βGGI subunit peptide sequences [IFQYTNFEK (SEQ.ID.NO.:3) (antisense oligo) and TIAFFLSGLDMLD (SEQ.ID.NO.:I) respectively]. The polymerase chain reaction (PCR) (Saiki, R. K., Gelfand, D. H., Stoffel, S., Scharf, S. J., Higuchi, R., Horn, G. T., Mullis, K. B. and Erlich, H. A. (1988) Science 239:[…]) was performed using DNA obtained from a bovine brain eDNA library as template (Vogel, U.S., Dixon, R. A. F., Schaber, M.D., Diehl, R. E., Marshall, M. S., Scoinick, E. M., Sigal, I. S. and Gibbs, J. B. (1988) Nature 335:90-93). […]

## CC(C)C[C@H](NC(=O)[C@@H](/C=C/[C@@H](NC[C@@H](N)CS)C(C)C)C(C)C)C(=O)O [5(S)-[2(R)-amino-3-mercaptopropylamino]-6-methyl(R)-i-propyl-3,4-E-heptenoyl-leucine]
FPTase
  IC50: 70 nM
bGGPTase-I
  IC50: 21 nM

## CC[C@H](C)[C@H](NC(=O)[C@@H](NC[C@@H](N)CS)C(C)C)C(=O)N[C@@H](CC(C)C)C(=O)O [N-(2(R)-amino-3-mercaptopropyl)-valyl-isoleucyl-leucine]
FPTase
  IC50: 800 nM
hGGPTase-I
  IC50: 23 nM
bGGPTase-I
  IC50: 1.9 nM

## CC[C@H](C)[C@@H](CO[C@H](C(=O)N[C@@H](CC(C)C)C(=O)O)C(C)C)NC[C@@H](N)CS [N-[2(S)-(2(S)-(2(R )-amino-3-mercaptopropylamino)-3(S)-methylpentyloxy)-3-methylbutanoyl]-leucine]
FPTase
  IC50: 450 nM
bGGPTase-I
  IC50: 37 nM
